The source of these data is patent publication US4665224A, “Ester of (+) 6-methoxy-α-methyl-2-naphthalene acetic acid having mucosecretolytic, anti-inflammatory, analgesic, antipyretic activity, a process for its preparation and pharmaceutical compositions thereof” (priority 1984, dated 1987).

In series [1] the test system is phenylquinone abdominal contractions. Kind of series: Analgesic activity, method of phenylquinone (abdominal contractions). The series is classed as in vivo, mouse (Swiss albine, female). The conditions noted are these: mouse, oral; for ED50: 20 min, 30 minutes before phenylquinone, contractions during 20 minutes, read-out: ED50 in mg/kg os. The protocol:
Female Swiss albine mice (20-25 g), fasting since 2 hours are employed.
The test drug is administered orally 30 minutes before endoperitoneal injection of phenylquinone (0.08 mg/mouse).
The characteristic abdominal contractions are counted individually during a 20 minutes period.

Another series has as its system bronchial mucus. Kind of series: Bronchosecretagogue activity, quantitative evaluation of the rabbit bronchial secretion. The series is classed as in vivo, rabbit (brown, male). The conditions noted are these: for Percent increase of the bronchial mucus: second 4 h period versus first; for bronchosecretagogue / mucolytic activity: oral, result in words. An excerpt:
Method of quantitative evaluation of the rabbit bronchial secretion according to Scuri R. et al. Boll. Chim. Farm. 119, 181-7; 1980.
Adult male brown rabbits (2.8-3.5 kg of body weight) to which a T shaped tracheal cannula is applied by surgical operation, as described in the above cited bibliographic reference, are used.
To the cannula, a container for periodical collection of the bronchial secretion is applied.
The study of mucoproduction, started on the fourth day after the operation, is divided into two periods (of 4 hours each), for collecting and measuring the secreted mucus. The action of the test drug is tested by administering it orally at the beginning of the second period of mucus collection and evaluating the percent increase in the mucus production (as measured gravimetrically) in the second period in comparison with the first period.

Series [2] relates to carrageenin induced oedema. The experiment in a line: Antiphlogistic activity, carrageenin induced oedema. The format is in vivo, rat (Wistar albine, female). The conditions noted are these: 3 h; rat, oral, one hour before carrageenin; paw volume at three hours; read-out: ED50 in mg/kg os. As for the experimental part:
Method of the carrageenin induced oedema according to Winter C. A. et al.--proc. Soc. Exp. Biol. Med--111, 544-7, 1962.
Female Wistar albine rats (120-160 grams of body weight) are utilized.
The test drug is administered orally one hour before injection of a carrageenin water suspension into the right hind paw (1%, injected volume […]).
The volume of the injected paw is recorded simultaneously with the carrageenin injection and three hours after the same by a plethysmometer (U. Basile, mod. 7150-Comerio, Varese).
(The carrageenan paw model is a standard test of acute inflammation.)

Another series has as its system yeast induced pyrexia. Kind of series: Antipyretic activity, yeast induced pyrexia in the rat. The series is classed as in vivo, rat (Wistar albine, female). The conditions noted are these: for ED50: Rattus norvegicus, po, read-out: ED50 in mg/kg os. As for the experimental part:
Method of yeast induced pyrexia in the rat.
Female Wistar albine rats, weighing 100-140 g, are employed. Animals having a rectal basal temperature from 36° to 37° C. are selected.
The testing substances are administered orally simultaneously with the pyretic agent (dry brewer's yeast suspended in water at 20% concentration,administered volume 15 ml/kg, subcutaneously) to groups of 5 animals per dose.
After 4,5,6,7 and 24 hours from the treatment, the rectal temperature of the animals is recorded by an Ellab RM6 probe, connected to an Ellab mod. TE-3 thermometer.
The activity of the drugs is evaluated by utilizing a temperature index which is given by the algebraic sum of the differences in the rectal temperature between the measured values at different times and the basal value.

For series [3], the system named is gastric lesions or submucosa hemorrhages. Kind of series: Gastric tolerability, gastric ulcerogenesys by repeated drug administrations. The series is classed as in vivo, rat (Wistar albine, female). The conditions noted are these: rat, oral for 5 days, result in words. The protocol: Method of gastric ulcerogenesys by repeated drug administrations.
Fed female Wistar albine rats (140-160 g of initial body weight) are used.
The test drug is administered orally for 5 days. At the end of the experiment, the rat's stomach is withdrawn, it is dissected along the lesser curvature, washed and observed in order to disclose the presence of either gastric lesions or manifest submucosa hemorrhages.

Another series deals with mouse. Kind of series: in vivo. The conditions noted are these: oral, result in words. The protocol: (§1) Method for studying the lethal dose 50 (LD50) in the mouse after a single administration.
(§2) Groups of 10 Swiss albine, female, adult mice (20-22 grams of body weight) fasting from the evening preceding the test, are treated orally with varying doses of the test drup suspended into hydroxyethylcellulose (0.5% w/v.)
(§3) Thereafter, the animals are fed again.

A further series can be described thus: in vivo. The conditions noted are these: mouse, in vivo, po. The protocol:
as §1, §2, §3

Where [4] appears, read: listed as compound of the present invention.

Molecules are shown by their SMILES.

As to `COc1ccc2cc([C@H](C)C(=O)O)ccc2c1` [(+)6-methoxy-α-methyl-2-naphthalene acetic acid, reference compound], the ED50 in series [1] is 18.5 mg/kg; in series [2], 35 mg/kg; with yeast induced pyrexia, 14 mg/kg. Besides, the “Percent increase of the bronchial mucus” value in the series on bronchial mucus (300 mg/kg os.) was 0%.
Take `COc1ccc2cc([C@H](C)C(=O)OCC3=CCC(C(C)(C)O)CC3)ccc2c1` (single isomer, unassigned; (+)) [CO/1446]: the ED50 in series [1] was 3.9 mg/kg; in series [2], 30 mg/kg; in the series on yeast induced pyrexia, 30 mg/kg. In addition, the “analgesic activity versus (+)6 methoxy-α-methyl-2-naphthalene acetic acid” value in series [1] (result in words) is given as “significantly more active”. Moreover, the “Percent increase of the bronchial mucus” value in the series with bronchial mucus (600 mg/kg os.) was determined as 32%. Moreover, the “bronchosecretagogue / mucolytic activity” value is recorded as “has bronchosecretagogue activity in the rabbit” with bronchial mucus (setting [4]) and “marked mucolytic activity of the bronchial secretion” in the series with bronchial mucus (listed as ester of formula (I)). Moreover, the gastric tolerability entry is “well tolerated by the gastric mucose of the rat” in series [3] (setting [4]), “very good gastric tolerability” in series [3] (listed as ester of formula (I)) and “better tolerated than (+)6-methoxy-α-methyl-2-naphthalene acetic acid” in series [3] (listed as such compound). Besides, the acute toxicity result in the series with mouse is recorded as “very low acute toxicity”. Also, the LD50 at 336 h in the series “in vivo” stood at 4000 mg/kg. In the series on yeast induced pyrexia (rat, oral, result in words), the antipyretic activity entry is “good antipyretic activity, though lower than the control”.

Usually LD50 stands for the dose at which mortality reaches 50%. High values mean lower toxicity, low ones greater toxicity.
